Reference: patent US20040048790A1, “Inducing cellular immune responses to p53 using peptide and nucleic acid compositions” (priority 1999, published 2004)
No end group written: not given here.

Key:
DRB1*0301 (DR3) = DRB1*0301 (DR3) (Homo sapiens, UniProt P01903+P01911, A100K/A102G/A103R/A169T/F55Y/I96L/K41T/L162R/M171V/P40S/Q125H/Q178H/Q39Y/R42S/S66N/T106N/T262R/W38E/Y61H); type: binding
B*3501 = B*3501 (Homo sapiens, UniProt P01889, A329T/A93T/A95T/C349S/D201E/D98Y/E176V/E187L/E204Q/E69T/I218V/K202T/L119I/Q94N/R155S/R180L/S121R/S35A/S48A/T118I/V127L/V306I/V36M/Y140S/Y91F); assay: biochemical
B*5401 = B*5401 (Homo sapiens, UniProt P01889, A329T/C349S/D138N/D201E/E176V/E187T/E204Q/E69G/I76V/K202T/L119W/R155S/R180L/S121T/S35A/S48A/V127L/V306I/V36M/Y140L); assay: biochemical
B*5301 = B*5301 (Homo sapiens, UniProt P01889, A329T/A93T/A95T/C349S/D201E/D98Y/E176V/E187L/E204Q/E69T/G107R/I218V/K202T/L105A/L119I/N104I/Q94N/R106L/R155S/R180L/S101N/S121R/S35A/S48A/T118I/V127L/V306I/V36M/Y140S/Y91F); assay: biochemical
HLA-B*0702 = HLA-B*0702 (Homo sapiens, UniProt P01889); assay: biochemical

Sequence of DRB1*0301 (DR3) (P01903 26-254 limits assumed, other chains not shown): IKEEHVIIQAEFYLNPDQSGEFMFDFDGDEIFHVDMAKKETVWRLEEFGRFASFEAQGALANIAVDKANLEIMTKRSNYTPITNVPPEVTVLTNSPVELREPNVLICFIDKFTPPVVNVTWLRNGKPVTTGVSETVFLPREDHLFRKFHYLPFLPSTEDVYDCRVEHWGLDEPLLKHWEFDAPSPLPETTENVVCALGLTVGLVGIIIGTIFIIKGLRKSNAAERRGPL

| Compound | IC50 (DRB1*0301 (DR3)) | IC50 (B*3501) | IC50 (B*5401) | IC50 (B*5301) | IC50 (HLA-B*0702) |
| --- | --- | --- | --- | --- | --- |
| CC(C)C[C@H](NC(=O)[C@H](CC(N)=O)NC(=O)CNC(=O)[C@@H](N)CCC(=O)O)C(=O)N[C@@H](CCCNC(=N)N)C(=O)N[C@H](C(=O)N[C@@H](CCC(=O)O)C(=O)N[C@@H](Cc1ccc(O)cc1)C(=O)N[C@@H](CC(C)C)C(=O)N[C@@H](CC(=O)O)C(=O)N[C@@H](CC(=O)O)C(=O)N[C@@H](CCCNC(=N)N)C(=O)N[C@@H](CC(N)=O)C(=O)N[C@H](C(=O)N[C@@H](Cc1ccccc1)C(=O)O)[C@@H](C)O)C(C)C | > 10000 nM |  |  |  |  |
| CC[C@H](C)[C@H](NC(=O)[C@H](CCC(N)=O)NC(=O)[C@H](CC(C)C)NC(=O)[C@@H](NC(=O)[C@H](Cc1ccccc1)NC(=O)[C@H](Cc1ccc(O)cc1)NC(=O)[C@H](CCC(=O)O)NC(=O)CN)[C@@H](C)O)C(=O)N[C@@H](CCCNC(=N)N)C(=O)NCC(=O)N[C@@H](CCCNC(=N)N)C(=O)N[C@@H](CCC(=O)O)C(=O)N[C@@H](CCCNC(=N)N)C(=O)N[C@@H](Cc1ccccc1)C(=O)N[C@@H](CCC(=O)O)C(=O)O | > 10000 nM |  |  |  |  |
| CC[C@H](C)[C@H](NC(=O)[C@H](CCC(N)=O)NC(=O)[C@H](CC(C)C)NC(=O)[C@@H](NC(=O)[C@H](Cc1ccccc1)NC(=O)[C@H](Cc1ccc(O)cc1)NC(=O)[C@H](CCC(=O)O)NC(=O)CNC(=O)[C@H](CC(=O)O)NC(=O)[C@H](CC(C)C)NC(=O)[C@@H]1CCCN1C(=O)[C@H](CCCCN)NC(=O)[C@@H](N)CCCCN)[C@@H](C)O)C(=O)N[C@@H](CCCNC(=N)N)C(=O)NCC(=O)O | > 10000 nM |  |  |  |  |
| CC[C@H](C)[C@H](NC(=O)[C@@H](NC(=O)[C@@H](N)CC(C)C)[C@@H](C)O)C(=O)N[C@H](C(=O)N[C@H](C(=O)N[C@@H](CC(C)C)C(=O)N[C@@H](CCC(=O)O)C(=O)N[C@@H](CC(=O)O)C(=O)N[C@@H](CO)C(=O)N[C@@H](CO)C(=O)NCC(=O)N[C@@H](CC(N)=O)C(=O)N[C@@H](CC(C)C)C(=O)N[C@@H](CC(C)C)C(=O)NCC(=O)O)[C@@H](C)O)[C@@H](C)CC | > 10000 nM |  |  |  |  |
| CC[C@H](C)[C@H](NC(=O)[C@H](C)NC(=O)[C@@H](N)CCSC)C(=O)N[C@@H](Cc1ccc(O)cc1)C(=O)N[C@@H](CCCCN)C(=O)N[C@@H](CCC(N)=O)C(=O)N[C@@H](CO)C(=O)N[C@@H](CCC(N)=O)C(=O)N[C@@H](Cc1c[nH]cn1)C(=O)N[C@@H](CCSC)C(=O)N[C@H](C(=O)N[C@@H](CCC(=O)O)C(=O)N[C@H](C(=O)N[C@H](C(=O)N[C@@H](CCCNC(=N)N)C(=O)O)C(C)C)C(C)C)[C@@H](C)O | > 10000 nM |  |  |  |  |
| CC[C@H](C)[C@H](NC(=O)[C@@H](NC(=O)[C@@H](NC(=O)[C@H](CS)NC(=O)[C@H](CC(=O)O)NC(=O)[C@H](CO)NC(=O)CNC(=O)[C@@H](NC(=O)[C@H](CCC(=O)O)NC(=O)[C@@H]1CCCN1C(=O)[C@@H]1CCCN1)C(C)C)[C@@H](C)O)[C@@H](C)O)C(=O)N[C@@H](Cc1c[nH]cn1)C(=O)N[C@@H](Cc1ccc(O)cc1)C(=O)N[C@@H](CC(N)=O)C(=O)N[C@@H](Cc1ccc(O)cc1)C(=O)O | 7900 nM |  |  |  |  |
| CC(C)C[C@H](NC(=O)[C@H](CCC(N)=O)NC(=O)[C@@H](NC(=O)[C@@H]1CCCN1)C(C)C)C(=O)N[C@@H](Cc1c[nH]c2ccccc12)C(=O)N[C@H](C(=O)N[C@@H](CC(=O)O)C(=O)N[C@@H](CO)C(=O)N[C@H](C(=O)N1CCC[C@H]1C(=O)N1CCC[C@H]1C(=O)N1CCC[C@H]1C(=O)NCC(=O)N[C@H](C(=O)N[C@@H](CCCNC(=N)N)C(=O)O)[C@@H](C)O)[C@@H](C)O)C(C)C | > 10000 nM |  |  |  |  |
| CC[C@H](C)[C@H](NC(=O)[C@H](C)NC(=O)[C@H](CCC(N)=O)NC(=O)[C@H](CO)NC(=O)[C@@H]1CCCN1C(=O)[C@H](CC(C)C)NC(=O)[C@@H]1CCCN1C(=O)[C@@H](N)Cc1ccccc1)C(=O)O [p53.33.F1] |  | 720 nM | 83 nM |  |  |
| CC[C@H](C)[C@H](NC(=O)[C@@H]1CCCN1C(=O)[C@@H]1CCCN1C(=O)[C@H](C)NC(=O)[C@H](C)NC(=O)[C@H](CCC(=O)O)NC(=O)[C@@H]1CCCN1C(=O)[C@H](CCSC)NC(=O)[C@H](CCCNC(=N)N)NC(=O)[C@@H]1CCCN1C(=O)[C@@H](N)Cc1ccccc1)C(=O)O [p53.63.F1111] |  | 5540 nM | 2.9 nM | 5470 nM |  |
| CC[C@H](C)[C@H](NC(=O)[C@H](C)NC(=O)[C@@H]1CCCN1C(=O)[C@H](C)NC(=O)[C@@H]1CCCN1C(=O)[C@H](C)NC(=O)[C@@H](NC(=O)[C@@H]1CCCN1C(=O)[C@@H]1CCCN1C(=O)[C@@H](N)Cc1ccccc1)C(C)C)C(=O)O [p53.70.F1110] |  |  | 63 nM | 2910 nM | 290 nM |
| CC[C@H](C)[C@H](NC(=O)[C@@H]1CCCN1C(=O)[C@@H](NC(=O)[C@@H]1CCCN1C(=O)[C@H](C)NC(=O)[C@H](C)NC(=O)[C@@H]1CCCN1C(=O)[C@H](C)NC(=O)[C@@H]1CCCN1C(=O)[C@@H](N)Cc1ccccc1)[C@@H](C)O)C(=O)O [p53.74.F1110] |  | 277 nM | 5.3 nM | 127 nM | 1.5 nM |
| CC[C@H](C)[C@H](NC(=O)[C@@H]1CCCN1C(=O)[C@@H](NC(=O)[C@@H]1CCCN1C(=O)[C@H](C)NC(=O)[C@H](C)NC(=O)[C@@H]1CCCN1C(=O)[C@@H](N)Cc1ccccc1)[C@@H](C)O)C(=O)O [p53.76.F118] |  | 655 nM | 3.1 nM |  | 128 nM |
| CC[C@H](C)[C@H](NC(=O)[C@@H]1CCCN1C(=O)[C@H](C)NC(=O)[C@H](C)NC(=O)[C@@H]1CCCN1C(=O)[C@@H](NC(=O)[C@@H]1CCCN1C(=O)[C@H](C)NC(=O)[C@H](C)NC(=O)[C@@H]1CCCN1C(=O)[C@@H](N)Cc1ccccc1)[C@@H](C)O)C(=O)O [p53.76.F1111] |  |  | 15 nM | 3210 nM |  |
| CC[C@H](C)[C@H](NC(=O)[C@@H]1CCCN1C(=O)[C@H](C)NC(=O)[C@H](C)NC(=O)[C@@H]1CCCN1C(=O)[C@@H](NC(=O)[C@@H]1CCCN1C(=O)[C@@H](N)Cc1ccccc1)[C@@H](C)O)C(=O)O [p53.79.F118] |  | 5140 nM | 7.7 nM | 6200 nM | 90 nM |
| CC(C)C[C@H](NC(=O)[C@@H]1CCCN1C(=O)[C@H](Cc1c[nH]c2ccccc12)NC(=O)[C@H](CO)NC(=O)[C@@H]1CCCN1C(=O)[C@H](C)NC(=O)[C@@H]1CCCN1C(=O)[C@H](C)NC(=O)[C@@H]1CCCN1C(=O)[C@@H](N)Cc1ccccc1)C(=O)O [p53.84.F1] |  | 5.1 nM | 1.7 nM |  |  |
| CC[C@H](C)[C@H](NC(=O)[C@H](CO)NC(=O)[C@@H]1CCCN1C(=O)[C@H](C)NC(=O)[C@@H]1CCCN1C(=O)[C@H](C)NC(=O)[C@@H]1CCCN1C(=O)[C@@H](N)Cc1ccccc1)C(=O)O [p53.84.F118] |  | 327 nM | 6.7 nM | 131 nM |  |
| CC[C@H](C)[C@H](NC(=O)[C@@H]1CCCN1C(=O)[C@H](Cc1c[nH]c2ccccc12)NC(=O)[C@H](CO)NC(=O)[C@@H]1CCCN1C(=O)[C@H](C)NC(=O)[C@@H]1CCCN1C(=O)[C@H](C)NC(=O)[C@@H]1CCCN1C(=O)[C@@H](N)Cc1ccccc1)C(=O)O [p53.84.F1110] |  |  | 1.2 nM | 42 nM | 13 nM |
| CC(C)C[C@H](NC(=O)[C@@H]1CCCN1C(=O)[C@H](Cc1c[nH]c2ccccc12)NC(=O)[C@H](CO)NC(=O)[C@@H]1CCCN1C(=O)[C@H](C)NC(=O)[C@@H]1CCCN1C(=O)[C@@H](N)Cc1ccccc1)C(=O)O [p53.86.F1] |  | 3.1 nM | 9.1 nM | 4 nM | 10 nM |
| CC(C)C[C@H](NC(=O)[C@@H]1CCCN1C(=O)[C@H](Cc1c[nH]c2ccccc12)NC(=O)[C@H](CO)NC(=O)[C@@H]1CCCN1C(=O)[C@@H](N)Cc1ccccc1)C(=O)N[C@@H](CO)C(=O)N[C@@H](CO)C(=O)N[C@@H](CO)C(=O)N[C@H](C(=O)O)C(C)C [p53.88.F1] |  | 72 nM | 0.3 nM | 93 nM | 3.2 nM |
| CC[C@H](C)[C@H](NC(=O)[C@H](CO)NC(=O)[C@H](CO)NC(=O)[C@H](CO)NC(=O)[C@H](CC(C)C)NC(=O)[C@@H]1CCCN1C(=O)[C@H](Cc1c[nH]c2ccccc12)NC(=O)[C@H](CO)NC(=O)[C@@H]1CCCN1C(=O)[C@@H](N)Cc1ccccc1)C(=O)O [p53.88.F1110] |  | 100 nM | 2.4 nM | 8.5 nM | 5.5 nM |
| CC[C@H](C)[C@H](NC(=O)[C@@H](NC(=O)[C@@H](NC(=O)[C@@H](NC(=O)[C@@H](NC(=O)[C@H](CC(C)C)NC(=O)[C@@H](NC(=O)[C@@H]1CCCN1C(=O)[C@@H](N)Cc1ccccc1)[C@@H](C)CC)[C@@H](C)O)[C@@H](C)CC)[C@@H](C)CC)[C@@H](C)O)C(=O)O [p53.249.F119] |  | 36 nM | 1.8 nM | 4 nM | 74 nM |
| FPAAPTPAI [p53.76.F119] |  | 12 nM | 2.5 nM | 7.2 nM | 2.6 nM |
| FPAPSWPI [p53.86.F118] |  | 4.8 nM | 1.6 nM | 3.3 nM | 120 nM |
| FPILTIITL [p53.249.F1] |  | 8 nM | 5 nM | 7.2 nM | 6.5 nM |
